Consider 17 molecules from patent US20260124214A1, “HETEROCYCLIC COMPOUNDS FOR USE IN THE TREATMENT OF CANCER” (ARTIOS PHARMA LIMITED, priority 2021, published 2026).

Counter-ions that a name gives are not always drawn.

By Ki is commonly meant the dissociation constant of the complex between target and ligand, obtained from inhibition or displacement.

The target of this assay is T1, Human Polθ polymerase domain (aa1820-2590) (Homo sapiens, UniProt O75417).
T1 construct: Human Polθ polymerase domain (aa1820-2590) was expressed in E. Coli; made in house; host or cells: E. coli
T1 sequence (O75417 1820-2590): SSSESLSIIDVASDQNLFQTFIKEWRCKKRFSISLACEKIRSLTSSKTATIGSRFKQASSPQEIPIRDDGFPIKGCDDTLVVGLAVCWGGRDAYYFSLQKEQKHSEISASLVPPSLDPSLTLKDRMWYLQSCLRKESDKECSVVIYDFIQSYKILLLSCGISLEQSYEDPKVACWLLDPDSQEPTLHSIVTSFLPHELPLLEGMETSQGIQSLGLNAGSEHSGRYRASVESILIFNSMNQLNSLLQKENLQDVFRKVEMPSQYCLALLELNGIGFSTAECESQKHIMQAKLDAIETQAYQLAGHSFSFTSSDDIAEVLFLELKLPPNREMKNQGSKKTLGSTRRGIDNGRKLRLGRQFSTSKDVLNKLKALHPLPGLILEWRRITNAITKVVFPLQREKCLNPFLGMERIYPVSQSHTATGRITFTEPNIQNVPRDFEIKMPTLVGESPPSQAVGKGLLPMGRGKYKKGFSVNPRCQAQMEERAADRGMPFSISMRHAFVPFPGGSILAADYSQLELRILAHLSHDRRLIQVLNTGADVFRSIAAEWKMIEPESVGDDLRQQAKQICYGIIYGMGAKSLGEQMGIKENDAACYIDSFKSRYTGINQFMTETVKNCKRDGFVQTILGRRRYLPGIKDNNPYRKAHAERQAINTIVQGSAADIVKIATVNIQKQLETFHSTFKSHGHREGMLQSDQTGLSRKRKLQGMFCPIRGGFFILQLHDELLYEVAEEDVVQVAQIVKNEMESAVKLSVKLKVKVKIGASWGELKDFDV
Briefly: Polθ Polymerase Domain WT KI Assay (PicoGreen). The assay is classed as biochemical. The note with it: 100 nM DNA substrate, 0.156 nM Polθ, initial rates vs inhibitor concentration. Put shortly:
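E. coli-expressed human Polθ polymerase domain (aa1820-2590) on annealed DNA II Short/Long primer-template (1.2:1), in 25 mM Tris pH 7.5, NaCl, 5% glycerol, 0.01% Triton X-100, 0.1 mg/ml BSA, 1 mM DTT, 1% DMSO. EDTA-quenched timepoints to 180 min, PicoGreen fluorescence. Initial rates vs inhibitor concentration fitted four-parameter for KI.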
Turning to `Cc1cc(C(F)(F)F)cc(N2C(=O)C[C@@H]3CN(CCN4CCC(O)CC4)c4c(Cl)cccc4N(C)C(=O)[C@H]32)n1` [Example 34, (3aR,11aS)-6-Chloro-5-(2-(4-hydroxypiperidin-1-yl)ethyl)-10-methyl-1-(6-methyl-4-(trifluoromethyl)pyridin-2-yl)-1,3a,4,5,10,11a-hexahydro-2H-benzo[b]pyrrolo[2,3-f][1,4]diazocine-2,11(3H)-dione], affinity was put at a Ki of 3.82 nM.
In the case of `Cc1cc(C(F)(F)F)cc(N2C(=O)C[C@@H]3CN(CCN4CC[C@H](N(C)C)[C@H](F)C4)c4c(Cl)cccc4N(C)C(=O)[C@H]32)n1` [Example 35, (3aR,11aS)-6-Chloro-5-(2-((3R,4S)-4-(dimethylamino)-3-fluoropiperidin-1-yl)ethyl)-10-methyl-1-(6-methyl-4-(trifluoromethyl)pyridin-2-yl)-1,3a,4,5,10,11a-hexahydro-2H-benzo[b]pyrrolo[2,3-f][1,4]diazocine-2,11(3H)-dione hydrochloride] it was 1.09 nM.
The same measure for `Cc1cc(C(F)(F)F)cc(N2C(=O)C[C@@H]3CN(CCN4CCN(S(C)(=O)=O)CC4)c4c(Cl)cccc4N(C)C(=O)[C@H]32)n1` [Example 36, (3aR,11aS)-6-Chloro-10-methyl-1-(6-methyl-4-(trifluoromethyl)pyridin-2-yl)-5-(2-(4-(methylsulfonyl)piperazin-1-yl)ethyl)-1,3a,4,5,10,11a-hexahydro-2H-benzo[b]pyrrolo[2,3-f][1,4]diazocine-2,11(3H)-dione]: 1.25 nM; for `Cc1cc(C(F)(F)F)cc(N2C(=O)C[C@@H]3CN(CCN4CCS(=O)(=O)CC4)c4c(Cl)cccc4N(C)C(=O)[C@H]32)n1` [Example 37, (3aR,11aS)-6-Chloro-5-(2-(1,1-dioxidothiomorpholino)ethyl)-10-methyl-1-(6-methyl-4-(trifluoromethyl)pyridin-2-yl)-1,3a,4,5,10,11a-hexahydro-2H-benzo[b]pyrrolo[2,3-f][1,4]diazocine-2,11(3H)-dione]: 1.74 nM.
In the case of `Cc1cc(C(F)(F)F)cc(N2C(=O)C[C@@H]3CN(CCN4CCC(C#N)CC4)c4c(Cl)cccc4N(C)C(=O)[C@H]32)n1` [Example 38, 1-(2-((3aR,11aS)-6-Chloro-10-methyl-1-(6-methyl-4-(trifluoromethyl)pyridin-2-yl)-2,11-dioxo-1,2,3,3a,4,10,11,11a-octahydro-5H-benzo[b]pyrrolo[2,3-f][1,4]diazocin-5-yl)ethyl)piperidine-4-carbonitrile] it was 1.2 nM; in that of `Cc1cc(C(F)(F)F)cc(N2C(=O)C[C@@H]3CN(CCN4CC[C@H](C#N)C4)c4c(Cl)cccc4N(C)C(=O)[C@H]32)n1` [Example 39, (S)-1-(2-((3aR,11aS)-6-Chloro-10-methyl-1-(6-methyl-4-(trifluoromethyl)pyridin-2-yl)-2,11-dioxo-1,2,3,3a,4,10,11,11a-octahydro-5H-benzo[b]pyrrolo[2,3-f][1,4]diazocin-5-yl)ethyl)pyrrolidine-3-carbonitrile], 4.13 nM.
For the molecule `Cc1cc(C(F)(F)F)cc(N2C(=O)C[C@@H]3CN(CCN4CC[C@@H](C#N)C4)c4c(Cl)cccc4N(C)C(=O)[C@H]32)n1` [Example 40, (R)-1-(2-((3aR,11aS)-6-Chloro-10-methyl-1-(6-methyl-4-(trifluoromethyl)pyridin-2-yl)-2,11-dioxo-1,2,3,3a,4,10,11,11a-octahydro-5H-benzo[b]pyrrolo[2,3-f][1,4]diazocin-5-yl)ethyl)pyrrolidine-3-carbonitrile], the Ki stood at 2.92 nM.
The molecule `Cc1cc(C(F)(F)F)cc(N2C(=O)C[C@@H]3CN(CCN4CC[C@H](C(=O)N(C)C)C4)c4c(Cl)cccc4N(C)C(=O)[C@H]32)n1` [Example 41, (S)-1-(2-((3aR,11aS)-6-Chloro-10-methyl-1-(6-methyl-4-(trifluoromethyl)pyridin-2-yl)-2,11-dioxo-1,2,3,3a,4,10,11,11a-octahydro-5H-benzo[b]pyrrolo[2,3-f][1,4]diazocin-5-yl)ethyl)-N,N-dimethylpyrrolidine-3-carboxamide] had an inhibition constant Ki of 2.9 nM.
Molecule `Cc1cc(C(F)(F)F)cc(N2C(=O)C[C@@H]3CN(CCN4CC[C@@H](C(=O)N(C)C)C4)c4c(Cl)cccc4N(C)C(=O)[C@H]32)n1` [Example 42, (R)-1-(2-((3aR,11aS)-6-Chloro-10-methyl-1-(6-methyl-4-(trifluoromethyl)pyridin-2-yl)-2,11-dioxo-1,2,3,3a,4,10,11,11a-octahydro-5H-benzo[b]pyrrolo[2,3-f][1,4]diazocin-5-yl)ethyl)-N,N-dimethylpyrrolidine-3-carboxamide] displayed a Ki of 4.96 nM.
In the case of `Cc1cc(C(F)(F)F)cc(N2C(=O)C[C@@H]3CN(CCN4CCN5C(=O)COC[C@H]5C4)c4c(Cl)cccc4N(C)C(=O)[C@H]32)n1` [Example 43, (3aR,11aS)-6-Chloro-10-methyl-1-(6-methyl-4-(trifluoromethyl)pyridin-2-yl)-5-(2-((R)-4-oxohexahydropyrazino[2,1-c][1,4]oxazin-8(1H)-yl)ethyl)-1,3a,4,5,10,11a-hexahydro-2H-benzo[b]pyrrolo[2,3-f][1,4]diazocine-2,11(3H)-dione] it was 3.05 nM.
The same measure for `Cc1cc(C(F)(F)F)cc(N2C(=O)C[C@@H]3CN(CCN4CCOCC4)c4c(C)cccc4N(C)C(=O)[C@H]32)n1` [Example 44, (3aR,11aS)-6,10-Dimethyl-1-(6-methyl-4-(trifluoromethyl)pyridin-2-yl)-5-(2-morpholinoethyl)-1,3a,4,5,10,11a-hexahydro-2H-benzo[b]pyrrolo[2,3-f][1,4]diazocine-2,11(3H)-dione]: 0.349 nM.
In the case of `Cc1cc(C(F)(F)F)cc(N2C(=O)C[C@@H]3CN(CCN4CCN(C)[C@@H](C)C4)c4c(C)cccc4N(C)C(=O)[C@H]32)n1` [Example 46, (3aR,11aS)-5-(2-((S)-3,4-Dimethylpiperazin-1-yl)ethyl)-6,10-dimethyl-1-(6-methyl-4-(trifluoromethyl)pyridin-2-yl)-1,3a,4,5,10,11a-hexahydro-2H-benzo[b]pyrrolo[2,3-f][1,4]diazocine-2,11(3H)-dione dihydrochloride] it was 0.515 nM.
For `Cc1cc(C(F)(F)F)cc(N2C(=O)C[C@@H]3CN(CCN4CCN(C)[C@H](C)C4)c4c(C)cccc4N(C)C(=O)[C@H]32)n1` [Example 47, (3aR,11aS)-5-(2-((R)-3,4-Dimethylpiperazin-1-yl)ethyl)-6,10-dimethyl-1-(6-methyl-4-(trifluoromethyl)pyridin-2-yl)-1,3a,4,5,10,11a-hexahydro-2H-benzo[b]pyrrolo[2,3-f][1,4]diazocine-2,11(3H)-dione dihydrochloride], affinity was put at a Ki of 0.605 nM. The Ki values of the last two molecules are within 1.5-fold of each other.
In the case of `Cc1cc(C(F)(F)F)cc(N2C(=O)C[C@@H]3CN(CCN4CCN(C)C[C@H]4C)c4c(C)cccc4N(C)C(=O)[C@H]32)n1` [Example 48, (3aR,11aS)-5-(2-((R)-2,4-Dimethylpiperazin-1-yl)ethyl)-6,10-dimethyl-1-(6-methyl-4-(trifluoromethyl)pyridin-2-yl)-1,3a,4,5,10,11a-hexahydro-2H-benzo[b]pyrrolo[2,3-f][1,4]diazocine-2,11(3H)-dione dihydrochloride] it was 0.307 nM.
`Cc1cc(C(F)(F)F)cc(N2C(=O)C[C@@H]3CN(CCN4CCN(C)C[C@@H]4C)c4c(C)cccc4N(C)C(=O)[C@H]32)n1` [Example 49, (3aR,11aS)-5-(2-((S)-2,4-Dimethylpiperazin-1-yl)ethyl)-6,10-dimethyl-1-(6-methyl-4-(trifluoromethyl)pyridin-2-yl)-1,3a,4,5,10,11a-hexahydro-2H-benzo[b]pyrrolo[2,3-f][1,4]diazocine-2,11(3H)-dione dihydrochloride] registered a Ki of 0.457 nM.
For the molecule `Cc1cc(C(F)(F)F)cc(N2C(=O)C[C@@H]3CN(CCN4CCN(C(=O)[C@@H](C)O)CC4)c4c(C)cccc4N(C)C(=O)[C@H]32)n1` [Example 51, (3aR,11aS)-5-(2-(4-((R)-2-Hydroxypropanoyl)piperazin-1-yl)ethyl)-6,10-dimethyl-1-(6-methyl-4-(trifluoromethyl)pyridin-2-yl)-1,3a,4,5,10,11a-hexahydro-2H-benzo[b]pyrrolo[2,3-f][1,4]diazocine-2,11(3H)-dione hydrochloride], the affinity, expressed as Ki, was 0.928 nM.
In the case of `Cc1cc(C(F)(F)F)cc(N2C(=O)C[C@@H]3CN(CCN4CCN(C(=O)[C@H](C)O)CC4)c4c(C)cccc4N(C)C(=O)[C@H]32)n1` [Example 52, (3aR,11aS)-5-(2-(4-((S)-2-Hydroxypropanoyl)piperazin-1-yl)ethyl)-6,10-dimethyl-1-(6-methyl-4-(trifluoromethyl)pyridin-2-yl)-1,3a,4,5,10,11a-hexahydro-2H-benzo[b]pyrrolo[2,3-f][1,4]diazocine-2,11(3H)-dione hydrochloride] it was 0.957 nM.
